The results in this text go back to article PMC5003509 (Journal of Medicinal Chemistry, 2015).

Series [1] can be described thus: Metabolic stability in mouse liver microsomes, glucuronidation. The following applies: in the presence of UDPGA. It is filed as in vitro ADME. A general note: Liver microsomes are vesicles of endoplasmic reticulum, rich in cytochrome P450 enzymes.
Series [2] can be described thus: Metabolic stability in mouse liver microsomes, CYP-mediated. The conditions noted are these: cofactor for CYP-dependent oxidation. Format: in vitro ADME.
The nature of series [3]: In vivo pharmacokinetics in CD1 mice. The following applies: male, CD1, mouse, plasma, iv, 10 mg/kg.
The subject of the next series is NMDA receptor (agonist). As to the kind of experiment: NMDA receptor. Format: binding. The conditions noted are these: at 10 μM.
The test system of series [4] is glycine receptor (strychnine sensitive). Briefly: Glycine receptor. It is filed as binding. The conditions noted are these: at 10 μM.
Series [5] concerns Salmonella typhimurium strain (TA100). As to the kind of experiment: Ames test. It is filed as cell-based. The following applies: TA100, in the presence or absence of metabolic activation by S9 mixture. For orientation: The Ames test uses bacterial strains that need an amino acid and regain growth without it when mutated back.
The target of another series is recombinant human DAAO (Homo sapiens, UniProt P14920). Briefly: In vitro DAAO assay. It is filed as biochemical.
recombinant human DAAO, sequence (P14920 whole entry): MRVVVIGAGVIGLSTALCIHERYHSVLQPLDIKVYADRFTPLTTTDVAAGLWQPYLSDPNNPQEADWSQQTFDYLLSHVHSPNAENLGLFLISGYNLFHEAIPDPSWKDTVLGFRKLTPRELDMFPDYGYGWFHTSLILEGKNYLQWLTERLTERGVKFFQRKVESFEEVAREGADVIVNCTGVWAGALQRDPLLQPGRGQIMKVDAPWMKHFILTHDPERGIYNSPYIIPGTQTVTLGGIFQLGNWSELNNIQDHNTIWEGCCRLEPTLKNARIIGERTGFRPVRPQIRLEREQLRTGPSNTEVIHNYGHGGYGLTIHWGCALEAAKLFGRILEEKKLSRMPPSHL
The next series concerns the target hERG channel (Homo sapiens, UniProt Q12809). As to the kind of experiment: hERG channel assay. The following applies: concentrations up to 25 μM. In general terms: hERG is a cardiac potassium channel; its block is linked to QT prolongation.
Another series concerns NMDA receptor (MK801). Briefly: NMDA receptor. Format: binding. The conditions noted are these: at 10 μM.
The nature of series [6]: Effect on plasma pharmacokinetics of oral D-serine in mice. The conditions noted are these: 11h (30 mg/kg, po) with D-serine (30 mg/kg, po).
Series [7] concerns NMDA receptor (phencyclidine). Briefly: NMDA receptor. The following applies: at 10 μM. It is filed as binding.

hERG channel, sequence (Q12809 whole entry): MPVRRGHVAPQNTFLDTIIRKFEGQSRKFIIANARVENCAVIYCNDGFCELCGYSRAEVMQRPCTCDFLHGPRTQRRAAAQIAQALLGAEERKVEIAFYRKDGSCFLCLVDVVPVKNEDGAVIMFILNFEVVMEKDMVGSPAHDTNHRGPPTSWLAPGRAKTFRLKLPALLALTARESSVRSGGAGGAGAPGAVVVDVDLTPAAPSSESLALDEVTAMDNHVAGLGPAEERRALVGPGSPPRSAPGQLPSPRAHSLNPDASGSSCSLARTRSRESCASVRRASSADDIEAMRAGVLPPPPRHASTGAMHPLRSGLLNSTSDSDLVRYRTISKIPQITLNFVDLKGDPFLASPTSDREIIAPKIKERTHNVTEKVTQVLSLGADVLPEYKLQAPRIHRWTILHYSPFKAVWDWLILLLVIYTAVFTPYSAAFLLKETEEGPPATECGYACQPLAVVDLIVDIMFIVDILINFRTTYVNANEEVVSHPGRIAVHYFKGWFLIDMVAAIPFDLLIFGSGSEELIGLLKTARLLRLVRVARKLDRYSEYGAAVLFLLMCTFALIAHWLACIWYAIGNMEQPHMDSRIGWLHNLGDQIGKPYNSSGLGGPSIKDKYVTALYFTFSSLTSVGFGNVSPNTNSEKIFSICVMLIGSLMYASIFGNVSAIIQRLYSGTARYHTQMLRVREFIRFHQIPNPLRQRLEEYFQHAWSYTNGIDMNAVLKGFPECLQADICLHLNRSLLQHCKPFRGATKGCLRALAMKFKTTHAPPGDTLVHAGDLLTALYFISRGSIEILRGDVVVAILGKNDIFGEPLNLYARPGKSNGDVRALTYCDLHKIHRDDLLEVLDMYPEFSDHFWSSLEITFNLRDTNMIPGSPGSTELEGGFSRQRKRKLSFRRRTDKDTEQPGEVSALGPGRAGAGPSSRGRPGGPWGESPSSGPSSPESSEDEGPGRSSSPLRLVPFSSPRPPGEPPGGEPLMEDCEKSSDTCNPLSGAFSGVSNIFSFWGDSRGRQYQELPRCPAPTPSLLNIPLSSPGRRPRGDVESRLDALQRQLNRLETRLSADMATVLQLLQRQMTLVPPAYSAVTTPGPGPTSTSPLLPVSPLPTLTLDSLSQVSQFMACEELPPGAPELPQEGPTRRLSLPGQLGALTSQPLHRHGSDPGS

As to `O=c1[nH]c(=O)n(CCc2ccccc2)nc1O` [11e, 6-Hydroxy-2-phenethyl-1,2,4-triazine-3,5(2H,4H)-dione], the “glucuronidation in mouse liver microsomes” value (from here on “glucuronidation”) in [1] is given as “completely resistant to glucuronidation”. Also, the “stability in mouse liver microsomes in the presence of NADPH” value in series [2] is listed as “stable”.

As to `O=c1[nH]nc(CCc2cc(F)cc(F)c2)cc1O` [8b, reference compound], the AUC(0-t) (usually exposure summed from dosing to a finite time, without extrapolation to infinity) in [3] came to 12700 ng·h/mL. Further, in series [1], the “glucuronidation” value is given as “some resistance to glucuronidation”.

Consider `O=c1[nH]c(=O)n(Cc2cccc3ccccc23)nc1O` [11h, 6-Hydroxy-2-(naphthalen-1-ylmethyl)-1,2,4-triazine-3,5(2H,4H)-dione], for which, in the series on NMDA receptor (agonist), the “inhibition, NMDA receptor (agonist)” value was at most 5% inhibition at 10 μM. Moreover, the “inhibition, glycine receptor (strychnine sensitive)” value in series [4] was at most 5% inhibition at 10 μM. For the same compound, the mutagenicity entry in series [5] is given as “No evidence of mutagenicity”. For the same compound, on recombinant human DAAO (escalation of FAD concentration from 10 to 100 μM), the “effect of FAD concentration on IC50” value is recorded as “did not affect IC50 value”. Besides, the mode of inhibition result on recombinant human DAAO (versus D-serine, double reciprocal plot) is “competitive inhibition”. Moreover, the “glucuronidation” value in series [1] is reported as “completely resistant to glucuronidation”. The hERG channel inhibition result at hERG channel is recorded as “no inhibition at concentrations up to 25 μM”. Further, in [2], the “stability in mouse liver microsomes in the presence of NADPH” value was “stable”. Also, the “inhibition, NMDA receptor (MK801)” value in the series on NMDA receptor (MK801) is at most 5% inhibition at 10 μM. In addition, in [6], the “effect on plasma clearance of D-serine” value is on record as “substantially reduced”. Also, the “inhibition, NMDA receptor (phencyclidine)” value in series [7] was at most 5% inhibition at 10 μM.

On to `O=c1cc(CSc2ccc(Cl)c(Cl)c2)occ1O` [compound 7, reference compound], for which the “glucuronidation” value in series [1] is on record as “extensively glucuronidated”.

As for `O=c1[nH]c(=O)n(CCc2ccccc2)cc1O` [compound 32, 5-Hydroxy-1-phenethylpyrimidine-2,4(1H,3H)-dione], the “glucuronidation” value in [1] is recorded as “fully glucuronidated within 60 min”.

As for `O=c1[nH]c(=S)n(CCc2ccccc2)nc1O` [compound 30, 6-Hydroxy-2-phenethyl-3-thioxo-3,4-dihydro-1,2,4-triazin-5(2H)-one], the “glucuronidation” value in series [1] is “metabolically stable against glucuronidation”.
